Data taken from US12629356B2, “Expansion of tumor infiltrating lymphocytes with potassium channel agonists and therapeutic uses thereof” (Iovance Biotherapeutics, Inc., priority 2017, dated 2026).

Legend:
[1] = tested on: normal donor PBMC lines and TIL lines from melanoma tumors; assay: Kinetic expression of KCa3.1 after activation with anti-CD3 and anti-CD28 with or without SKA-31 (flow cytometry); assay type: cell-based, human; conditions: 50 nM SKA-31; PBMCs and melanoma TILs stimulated with anti-CD3 and anti-CD28; day 1, 3 and 7
Procedure: To study kinetic expression of KCa3.1, wo normal donor PBMC lines and three TIL lines from melanoma tumors were activated with anti-CD3 and anti-CD28 with the KCa3.1 agonist SKA-31 (Formula (2)). PBMCs and TILs at day 0 (baseline) were used as controls for KCa3.1 expression. Normal donor PBMCs and three TIL lines (M004, M10^11, and M1023) were thawed and cultured in TIL culture media (TIL CM) containing RPMI 1640 (Thermo Fisher Scientific, Waltham, MA, USA), 1 mM Glutamax (Thermo Fisher Scientific), 1 mM pyruvate (Thermo Fisher Scientific), 50 μM 2-mercaptoethanol (Thermo Fisher Scientific), and 1× Pen-Strep (Thermo Fisher Scientific), and 10% human AB serum (Gemini Bio-Products, West Sacramento, CA, USA) with IL-2 (6000 IU/mL) (CellGenix Inc., Portsmouth, NH, USA). On the next day, PBMCs were activated with anti-CD3 (Clone CLB-T3/4.E, Cell Sciences) ([…]) and anti-CD28 (Clone 28.2, BioLegend, San Diego, CA, USA) (500 ng/mL) with or without 50 nM SKA-31 (Sigma-Aldrich Co., St. Louis, MO, USA). […] Cells were harvested on day 1, 3, and 7 following activation, stained with anti-CD3 (clone SP34-2, BD Biosciences), anti-CD8 (clone RPA-T8, BioLegend), anti-KCa3.1 (Polyclonal, Alomone Lab), and AmCyan (Thermo Fisher Scientific), and analyzed by flow cytometry using a BD FACS CANTO II system.

Melanoma TIL lines [2] = assay: Fold expansion of melanoma TIL lines in 14-day REP with or without SKA-31; assay type: cell-based, human; conditions: ten melanoma TIL lines; 50 mM SKA-31 (so in the source); day 14 of REP; p=0.002
Procedure: (§1) Melanoma TIL lines were propagated using a REP protocol for 14 days with or without the KCa3.1 agonist SKA-31 (Formula (2)). Ten TIL lines (M004, M10^11, M1017, M1020, M1021, M1025, M1030, M1034, M1036, and M1045) were propagated with REP with anti-CD3 OKT-3 antibody (Miltenyi Biotech) (30 ng/mL) using irradiated PBMC feeder cells at ratio of TILs to feeder cells of 1 to 100 in G-REX 24 well plates (Wilson Wolf Manufacturing). Approximately 1×10^6 TILs were used per G-REX 24 well on day 0 in 8 mL of TIL REP media (TIL CM and Aim V media (Thermo Fisher Scientific) at a 1 to 1 ratio) with or without 50 mM of SKA-31. On day 2, the cultures were supplemented with IL-2 (6000 IU/mL). Half of the media was replaced with fresh AIMV media on day 5 with or without 50 mM SKA-31. The REP cultures were supplemented with IL-2 (3000 IU/mL) on day 9 and 12 respectively. On day 14, TTLs were counted and calculated for fold expansion.

Melanoma TIL lines [3] = assay: Phenotyping of melanoma TILs (CD27, CD28) at end of REP with or without SKA-31; assay type: cell-based, human; conditions: ten melanoma TIL lines, end of 14-day REP, vs TILs without SKA-31
Procedure: as §1
Ten melanoma TIL lines were expanded with the REP protocol for 14 days with or without the KCa3.1 agonist SKA-31 (Formula (2)) as in Example 2. At the end of each REP, TILs were harvested and phenotyped with anti-CD3 (clone SP34-2, BD Biosciences), anti-CD28 (clone CD28.2, BD biosciences), and anti-CD27 (M-T271, BD Biosciences) antibodies.

[4] = tested on: pre-REP TILs from tumor fragments; assay: CCR7+ and CD25+ expression in pre-REP TILs grown with IL-2 alone or IL-2 with SKA-31 (flow cytometry); assay type: cell-based; conditions: vs no treatment
Procedure: Three tumors (kidney, estrogen receptor positive (ER^+) breast, and melanoma) were grown with either IL-2 alone or IL-2 with SKA-31 […] to evaluate the performance of a KCa3.1 agonist in the pre-REP stage. The resected tumor samples were cut into 3-5 mm^2 fragments. Four to eight tumor fragments were placed into GREX-10 flask containing TIL CM (previously described) with IL-2 (6000 IU/mL) with or without 100 nM SKA-31. The culture was supplemented with IL-2 every 5 days until harvested. After three weeks, TIL was collected, counted, and stained with anti-CD8 (clone RPA-T8, BioLegend), anti-CD4 (OKT-4, BioLegend), anti-CCR7 (BioLegend G043H7), or AmCyan (Thermo Fisher Scientific), and analyzed by flow cytometry using a BD FACS CANTO II system. The results of CCR7 expression in the three tumor fragments are presented in FIG. 13, with representative flow cytometry results for one of the tumors presented in FIG. 14.
Further evidence that SKA-31 enhances expression of CD25 and CCR7 was also obtained. Pre-REP TIL were grown with either IL-2 (6000 IU/mL) alone or with SKA-31 and were analyzed after 21 days (n=14; tumor types: breast cancer (8), melanoma (3), kidney (2), ovarian (1)). CCR7^+ expression was assessed by flow cytometry in CD4^+ (FIG. 15, top) and CD8^+subsets (FIG. 15, bottom). CD25^+expression was assessed by flow cytometry in CD4^+(FIG. 17, top) and CD8′ subsets (FIG. 17, bottom) (n=16, breast cancer (8), melanoma (3), kidney (3), ovarian (2)). In both cases, p values represent the difference between no treatment and SKA-31 using student's unpaired T test, and p values<0.05 are considered as statistically significant.

[5] = tested on: pre-REP TILs from ovarian and breast cancer tumor fragments; assay: Absolute cell counts of pre-REP TILs from ovarian and breast tumor fragments with or without SKA-31; assay type: cell-based; conditions: 50 nM SKA-31 with IL-2, three weeks, vs IL-2 alone
Procedure: Tumor fragments from ovarian and breast cancer (triple positive, ER^+/PR^+/HER2^+) tumors were grown in a pre-REP stage with either IL-2 alone or IL-2 with SKA-31 (Formula (2)) at a concentration of 50 nM. The resected tumor samples were cut into 3-5 mm^2 fragments. Four to eight tumor fragments were placed into GREX-10 flasks containing TIL CM (previously described) with IL-2 (6000 IU/mL). The culture was supplemented with IL-2 every 5 days until harvested. After three weeks, TILs were collected, counted, and stained with anti-CD8 antibody (clone RPA-T8, BioLegend), anti-CD4 antibody (OKT-4, BioLegend), anti-CD3 antibody (clone SP34-2, BD Biosciences), and AmCyan (Thermo Fisher Scientific), and analyzed by flow cytometry using a BD FACS CANTO II system.

[6] = tested on: TILs co-cultured with melanoma tumor cells; assay: IFN-γ release (ELISA) from TILs prepared with and without SKA-31 co-cultured with melanoma tumor cells; assay type: cell-based; conditions: 24 hours co-culture, 3:1 E:T ratio, vs TILs prepared without SKA-31
Procedure: FIG. 21 illustrates the results of IFN-γ release as measured by enzyme-linked immunosorbent assay (ELISA). TILs prepared with and without SKA-31 were co-cultured with melanoma tumor cells for 24 hours at a TIL:melanoma cell ratio of 3:1 (i.e., a 3:1 effector:target or E:T ratio). Blocking of the TCR MHC-I was performed using 80 μg/mL of antibody clone W6/32 (BioLegend).

melanoma cells = assay: Tumor cell killing by TILs prepared with and without SKA-31 (caspase-3 marker); assay type: cell-based; conditions: different E:T ratios
[7] = breast (ER+/PR+/HER2+) tumor fragments

SMILES: Nc1nc2c(ccc3ccccc32)s1 [SKA-31, naphtho[1,2-d]thiazol-2-ylamine]
- KCa3.1 expression [1]: did not alter KCa3.1 expression
- expansion of TILs in REP relative to control without KCa3.1 agonist (Melanoma TIL lines [2]): 1.42 fold
- CD8+CD27+CD28+ T cell subset (Melanoma TIL lines [3]; p=0.002): greater expansion
- CD8+CD27+ T cell subset (Melanoma TIL lines [3]; p=0.04): greater expansion
- CD8+CD28+ T cell subset (Melanoma TIL lines [3]; p=0.04): greater expansion
- CCR7+ expression in CD4+ and CD8+ subsets ([4]; pre-REP TIL, IL-2 6000 IU/mL with SKA-31, 21 days, n=14 tumors): enhances
- CD25+ expression in CD4+ and CD8+ subsets ([4]; pre-REP TIL, IL-2 6000 IU/mL with SKA-31, 21 days, n=16 tumors): enhances
- CCR7+ expression in CD4+ and CD8+ TILs ([4]; three tumor fragments (kidney, ER+ breast, melanoma), pre-REP, 100 nM SKA-31 with IL-2, three weeks): increased
- absolute cell counts, CD3^mCD4^m TILs [5, 7]: increased
- absolute cell counts, CD3^mCD8^m TILs [5, 7]: increased
- absolute cell counts, CD3^mCD8^m TILs ([5]; ovarian tumor fragments): increased
- IFN-γ release ([6]; one TIL cell line): statistically significant increase
- IFN-γ release ([6]; second TIL cell line): no adverse effect
- tumor killing (caspase-3) (melanoma cells; M1032 TIL line): no adverse effects
- tumor killing (caspase-3) (melanoma cells; M1041 TIL line): no adverse effects
